Literature values as cited in PubChem BioAssay AID1259409 (Chemical Carcinogenesis Research Information System (CCRIS), 2018).
Values joined by “and” are separate entries in the source; they are usually repeats but may differ in a detail not shown here. Equal values may be shown once.

Tested on: rodent chemically induced tumor inhibition, incidence and multiplicity
Assay: CCRIS tumor inhibitor studies

Question: With `Nc1ncn[nH]1` as the compound, how does the “tumour outcome (control, treated, inhibition, significance)” value (Carcinogen: DIETHYLSTILBESTROL, 56-53-1, Dose [Inhibitor]: 0, 1500 PPM IN DRINKING WATER 47 D POST FIRST DOSE OF CARCINOGEN (STUDY DURATION: 6 MO), Route [Inhibitor]: ORAL, Species: RAT, Strain/Sex: WF/MALE, Target Tissue: Type of Lesion: LIVER: HEPATOCELLULAR CARCINOMA, Dose [Carcinogen]: 5 MG ONTO BACK 1/2 MO FOR 6 MO, Promoter: NONE USED) read?
Answer: The value was 1/9 (11%), 0/11 (0%), 100%, not calculated.

Question: And the “tumour outcome (control, treated, inhibition, significance)” value (Carcinogen: DIETHYLSTILBESTROL, 56-53-1, Dose [Inhibitor]: 0, 1500 PPM IN DRINKING WATER 47 D POST FIRST DOSE OF CARCINOGEN (STUDY DURATION: 6 MO), Route [Inhibitor]: ORAL, Species: RAT, Strain/Sex: WF/MALE, Target Tissue: Type of Lesion: PITUITARY: TUMOR, Dose [Carcinogen]: 5 MG ONTO BACK 1/2 MO FOR 6 MO, Promoter: NONE USED)?
Answer: The value was 7/9 (78%), 8/11 (73%), 6%, not significant.

Question: Which “tumour outcome (control, treated, inhibition, significance)” value (Carcinogen: 7,12-DIMETHYLBENZ[A]ANTHRACENE, 57-97-6, Dose [Inhibitor]: 0, 1.1 UMOL 1/WK FOR 27 WK APPLIED 1 HR POST EACH PROMOTER DOSE (STUDY DURATION: 27 WK), Route [Inhibitor]: DERMAL, Species: MOUSE, Strain/Sex: SENCAR/FEMALE, Target Tissue: Type of Lesion: SKIN: PAPILLOMA, Dose [Carcinogen]: 25 NMOL ONCE, Promoter: CHRYSAROBIN, 491-58-7) does the source give for `CCN(CC)CCCCCCCCOC(=O)c1cc(OC)c(OC)c(OC)c1` here?
Answer: The value was 85%, 73%, 14%, not significant.

Question: And the “tumour outcome (control, treated, inhibition, significance)” value (Carcinogen: 7,12-DIMETHYLBENZ[A]ANTHRACENE, 57-97-6, Dose [Inhibitor]: 0, 4.4 UMOL 1/WK FOR 27 WK APPLIED 1 HR POST EACH PROMOTER DOSE (STUDY DURATION: 27 WK), Route [Inhibitor]: DERMAL, Species: MOUSE, Strain/Sex: SENCAR/FEMALE, Target Tissue: Type of Lesion: SKIN: PAPILLOMA, Dose [Carcinogen]: 25 NMOL ONCE, Promoter: CHRYSAROBIN, 491-58-7)?
Answer: The value was 85%, 82%, 4%, not significant.

Question: Which results are given for `O=S(=O)([O-])[O-].O=S(=O)([O-])[O-].O=S(=O)([O-])[O-].[Fe+3].[Fe+3]`?
Answer: tumour outcome (control, treated, inhibition, significance) (Dose [Inhibitor]: 0, 15.5 UMOL (FE) INJECTED WITH CARCINOGEN INTO THIGH OF BOTH HIND LIMBS (STUDY DURATION: 79 WK), Route [Inhibitor]: INTRAMUSCULAR, Species: RAT, Strain/Sex: F344/MALE, Target Tissue: Type of Lesion: INJECTION SITE: SARCOMA, Dose [Carcinogen]: 2.5 MG PER SITE INJECTED INTO THIGH OF BOTH HIND LIMBS ONCE, Promoter: NONE USED): 100%, 98%, 2%, not significant; tumour outcome (control, treated, inhibition, significance) (Dose [Inhibitor]: 0, 30 UMOL (FE) INJECTED WITH CARCINOGEN INTO THIGH OF BOTH HIND LIMBS (STUDY DURATION: 79 WK), Route [Inhibitor]: INTRAMUSCULAR, Species: RAT, Strain/Sex: F344/MALE, Target Tissue: Type of Lesion: INJECTION SITE: SARCOMA, Dose [Carcinogen]: 2.5 MG PER SITE INJECTED INTO THIGH OF BOTH HIND LIMBS ONCE, Promoter: NONE USED): 100%, 45%, 55%, not calculated; tumour outcome (control, treated, inhibition, significance) (Dose [Inhibitor]: 0, 60 UMOL (FE) INJECTED INTO NAPE OF NECK (STUDY DURATION: 79 WK), Route [Inhibitor]: SUBCUTANEOUS, Species: RAT, Strain/Sex: F344/MALE, Target Tissue: Type of Lesion: INJECTION SITE: SARCOMA, Dose [Carcinogen]: 2.5 MG PER SITE INJECTED INTO THIGH OF BOTH HIND LIMBS, Promoter: NONE USED): 100%, 100%, 0%, not significant; tumour outcome (control, treated, inhibition, significance) (Dose [Inhibitor]: 0, 60 UMOL (FE) INJECTED WITH CARCINOGEN INTO THIGH OF BOTH HIND LIMBS (STUDY DURATION: 79 WK), Route [Inhibitor]: INTRAMUSCULAR, Species: RAT, Strain/Sex: F344/MALE, Target Tissue: Type of Lesion: INJECTION SITE: SARCOMA, Dose [Carcinogen]: 2.5 MG PER SITE INJECTED INTO THIGH OF BOTH HIND LIMBS ONCE, Promoter: NONE USED): 100%, 35%, 65%, not calculated

Question: With `CCCCCCCCCCCCCCCC(=O)OCC(COC(=O)CCCCCCCCCCCCCCC)OC(=O)CCCCCCCCCCCCCCC` as the compound, how does the “tumour outcome (control, treated, inhibition, significance)” value (Carcinogen: DIMETHYLBENZANTHRACENE, 57-97-6, Dose [Inhibitor]: APPLIED 3 MIN POST EACH PROMOTER DOSE 3/WK FOR 20 WK BEGINNING 3 D POST CARCINOGEN DOSE (STUDY DURATION: 20 WK), Route [Inhibitor]: DERMAL, Species: MOUSE, Strain/Sex: SWISS/?, Target Tissue: Type of Lesion: SKIN: TUMOR, Dose [Carcinogen]: 250 UG/0.25 ML ONCE, Promoter: CROTON OIL, 8001-28-3) read?
Answer: Its value is 100%, 25%, 75%, not calculated.

Question: For `CCC(C)C(NC(=O)C(C)NC(=O)C(Cc1cnc[nH]1)NC(=O)C1CCCN1C(=O)CNC(=O)C(CC(C)C)NC(=O)C(CC(C)C)NC(=O)C(Cc1ccc(O)cc1)NC(=O)CNC(=O)C(C)NC(=O)C(CO)NC(=O)C(CC(N)=O)NC(=O)C(CC(C)C)NC(=O)C(NC(=O)C(Cc1c[nH]c2ccccc12)NC(=O)CN)C(C)O)C(=O)NC(CC(=O)O)C(=O)NC(CC(N)=O)C(=O)NC(Cc1c[nH]cn1)C(=O)NC(CCCNC(=N)N)C(=O)NC(CO)C(=O)NC(Cc1ccccc1)C(=O)NC(Cc1cnc[nH]1)C(=O)NC(CC(=O)O)C(=O)NC(CCCCN)C(=O)NC(Cc1ccc(O)cc1)C(=O)NCC(=O)NC(CC(C)C)C(=O)NC(C)C(N)=O` (stereo not drawn), which “tumour outcome (control, treated, inhibition, significance)” value (Carcinogen: AZOXYMETHANE, 25843-45-2, Dose [Inhibitor]: 0, 4 UG/KG BW IN OLIVE OIL 1/2 D FOR DURATION OF STUDY (STUDY DURATION: 45 WK), Route [Inhibitor]: SUBCUTANEOUS, Species: RAT, Strain/Sex: WISTAR/MALE, Target Tissue: Type of Lesion: COLON: ADENOMA OR ADENOCARCINOMA, Dose [Carcinogen]: 7.4 MG/KG BW IN 0.9% SALINE 1/WK FOR 10 WK, Promoter: NONE USED) is on record?
Answer: The value was 15/19 (79%), 7/19 (37%), 53%, p<0.05.

Question: What about the “tumour outcome (control, treated, inhibition, significance)” value (Carcinogen: N-METHYL-N'-NITRO-N-NITROSOGUANIDINE, 70-25-7, Dose [Inhibitor]: 0, 2 UG/KG BW IN OLIVE OIL 1/2 WK FOR 26 WK BEGINNING POST CARCINOGEN TREATMENT (STUDY DURATION: 52 WK), Route [Inhibitor]: SUBCUTANEOUS, Species: RAT, Strain/Sex: WISTAR/MALE, Target Tissue: Type of Lesion: STOMACH: ADENOCARCINOMA, Dose [Carcinogen]: 50 UG/ML IN DRINKING WATER FOR 25 WK, Promoter: NONE USED) of the same compound?
Answer: The value was 10/20 (50%), 10/20 (50%), 0%, not significant.

Question: And the “tumour outcome (control, treated, inhibition, significance)” value (Carcinogen: N-METHYL-N'-NITRO-N-NITROSOGUANIDINE, 70-25-7, Dose [Inhibitor]: 0, 4 UG/KG BW IN OLIVE OIL 1/2 WK FOR 26 WK BEGINNING POST CARCINOGEN TREATMENT (STUDY DURATION: 52 WK), Route [Inhibitor]: SUBCUTANEOUS, Species: RAT, Strain/Sex: WISTAR/MALE, Target Tissue: Type of Lesion: STOMACH: ADENOCARCINOMA, Dose [Carcinogen]: 50 UG/ML IN DRINKING WATER FOR 25 WK, Promoter: NONE USED)?
Answer: Its value is 10/20 (50%), 3/20 (15%), 70%, p<0.01.

Question: With `CC(C)(C)c1ccccc1O` as the compound, how does the “tumour outcome (control, treated, inhibition, significance)” value (Carcinogen: BENZO[A]PYRENE, 50-32-8, Dose [Inhibitor]: 0.03 MMOL/G OF DIET DAILY STARTING 7 D BEFORE AND CONTINUING THROUGH 3 D AFTER CARCINOGEN TREATMENT FOLLOWED BY OBSERVAT, Route [Inhibitor]: ORAL, Species: MOUSE, Strain/Sex: ICR/FEMALE, Target Tissue: Type of Lesion: FORESTOMACH: NEOPLASM, Dose [Carcinogen]: 1 MG IN 0.2 ML CORN OIL 2/WK FOR 4 WK, Promoter: NONE USED) read?
Answer: Its value is 94%, 85%, 10%, not significant and 100%, 95%, 5%, not significant.
